# Test results taken from paper PMC7767178 (International Journal of Molecular Sciences, 2020).
# Positions of bridges follow the written chain, without caps; N, C: chain ends. Residues, ends and D or L forms follow the SMILES beside them.
# What was measured:
# [1] = tested on: A. veronii ACCC61732 genomic DNA; test: CD spectra of genomic DNA with peptides; format: binding; details: mass ratios 2.5 and 10.0, 10 min, room temperature
# Procedure: CD spectra were performed to examine the secondary structure of genomic DNA from A. veronii ACCC61732 after incubation with peptides. […] The mixtures were loaded into a cuvette of 1.0-mm path length and scanned from 190 to 330 nm at 25 °C using a Pistar π-180 CD spectrometer (Applied Photophysics Ltd., Surry, UK).
# [2] = in vitro; details: mouse, 25% mouse serum
# [3] = tested on: mouse erythrocytes; test: Hemolysis; format: cell-based; details: 256 μg/mL; 8% mouse erythrocyte suspension, 37 °C, 1 h, absorbance 540 nm
# Procedure: To determine the hemolysis of peptides, eyeball blood was collected from 6-week-old SPF ICR mice. The blood was centrifuged at 4 °C for 10 min (1500 rpm), washed three times with 0.9% physiological saline, and diluted to 8% suspension. […] Red blood cell suspensions and peptide solutions (100 μL) were mixed in 96-well plates, centrifuged at 4 °C for 5 min (1500 rpm), and incubated at 37 °C for 1 h. The supernatant was added into a 96-well plate and the UV absorbance was measured at 540 nm using a microplate reader. Physiological saline and 0.1% Triton X-100 were used as 0% and 100% hemolytic controls, respectively. The hemolytic ratio was calculated as follows: Hemolysis (%) = [(Abspeptide − Abssaline)/(Abs0.1%Triton X-100 − Abssaline)] × 100% [38].
SMILES,effect on CD spectrum of genomic DNA [1],remaining at 2 h [2] [%],remaining at 4.5 h [2] [%],remaining at 6 h [2] [%],hemolysis [3] [%]
CC(C)[C@@H]1NC(=O)CNC(=O)[C@H](CC(N)=O)NC(=O)[C@H](CCCNC(=N)N)NC(=O)[C@H](Cc2ccc(O)cc2)NC(=O)[C@H](C(C)C)NC(=O)[C@@H](NC(=O)[C@@H](NC(=O)[C@H](CC(N)=O)NC(=O)[C@H](Cc2c[nH]c3ccccc23)NC(=O)[C@H](C)NC(=O)[C@H](Cc2ccccc2)NC(=O)CN)C(C)C)CSSC[C@@H](C(=O)N[C@@H](Cc2c[nH]cn2)C(=O)N[C@@H](CCCNC(=N)N)C(=O)N2CCC[C@H]2C(=O)N[C@@H](C)C(=O)N[C@@H](CC(N)=O)C(N)=O)NC(=O)[C@H](C(C)C)NC(=O)[C@H](CCCNC(=N)N)NC1=O [N6PNH2] (H-GFAWNVCVYRNGVRVCHRPAN-NH2; disulfide 7-16 (inferred)),do not affect the double helix of genomic DNA,95.2,84.9,79.9,0.56
CC(C)[C@H](N)C(=O)N[C@@H](Cc1ccccc1)C(=O)N[C@@H](C)C(=O)N[C@@H](Cc1c[nH]c2ccccc12)C(=O)N[C@@H](CC(N)=O)C(=O)N[C@H](C(=O)N[C@H]1CSSC[C@@H](C(=O)N[C@@H](Cc2c[nH]cn2)C(=O)N[C@@H](CCCNC(=N)N)C(=O)N[C@@H](CCCNC(=N)N)C(=O)N[C@@H](C)C(=O)N[C@@H](CC(N)=O)C(N)=O)NC(=O)[C@H](C(C)C)NC(=O)[C@H](CCCNC(=N)N)NC(=O)[C@H](C(C)C)NC(=O)[C@H](C(C)C)NC(=O)[C@H](CC(N)=O)NC(=O)[C@H](CCCNC(=N)N)NC(=O)[C@H](Cc2ccc(O)cc2)NC(=O)[C@H](C(C)C)NC1=O)C(C)C [V112N6NH2] (H-VFAWNVCVYRNVVRVCHRRAN-NH2; disulfide 7-16 (inferred)),do not affect the double helix of genomic DNA,81.4,32.1,19.1,4.59
